Patent publication US9776999B2, “Antiparisitic dihydroazole compounds and compositions comprising same” (MERIAL, INC., priority 2009, dated 2017)

System: Ctenocephalides felis
Assay: Contact activity of compounds against fleas (Method B)
Conditions: adult fleas, treated filter paper; 72 hours assessment; test concentration of 100 ppm or less; versus untreated controls
Protocol: METHOD B: Screening Method to test Contact Activity of Compounds Against Fleas
A solution of the test compound was dispensed, using a pipette, onto filter paper placed into a glass vial. The filter paper was allowed to dry before infesting each vial with 10 adult Ctenocephalides felis. The treated Ctenocephalides felis were held in a controlled environment (24° C., 90-95% relative humidity) and assessment was performed at 24, 48 and 72 hours after application in comparison with untreated controls.

CSCCNC(=O)c1ccc(C2=NOC(c3cc(C(F)(F)F)cc(C(F)(F)F)c3)(C(F)(F)F)C2)n2cccc12 (stereo not shown) [Compound 1.009, 5-[5-(3,5-Bistrifluoromethylphenyl)-5-trifluoromethyl-4,5-dihydroisoxazol-3-yl]-indolizine-8-carboxylic acid (2-methylthioethyl)-amide]
control (Ctenocephalides felis, contact): at least 80%
